# Measured values reported in ChEMBL document CHEMBL1212880, “Discovery of (2,4-dihydroxy-5-isopropylphenyl)-[5-(4-methylpiperazin-1-ylmethyl)-1,3-dihydroisoindol-2-yl]methanone (AT13387), a novel inhibitor of the molecular chaperone Hsp90 by fragment based drug design” (J Med Chem, 2010).
# The source made the active and inactive calls. The rule behind the calls is not given here.
# Tests used:
# [1] = Dissociation constant, pKa of the compound; assay type: physicochemical
# physchem = conditions: buffer, pH 7.4
# hERG (KCNH2) [2] = target: T1, hERG (KCNH2) (Homo sapiens, UniProt Q12809); experiment: in vitro; conditions: HEK293 cells expressing hERG
# T1 sequence (Q12809 whole entry): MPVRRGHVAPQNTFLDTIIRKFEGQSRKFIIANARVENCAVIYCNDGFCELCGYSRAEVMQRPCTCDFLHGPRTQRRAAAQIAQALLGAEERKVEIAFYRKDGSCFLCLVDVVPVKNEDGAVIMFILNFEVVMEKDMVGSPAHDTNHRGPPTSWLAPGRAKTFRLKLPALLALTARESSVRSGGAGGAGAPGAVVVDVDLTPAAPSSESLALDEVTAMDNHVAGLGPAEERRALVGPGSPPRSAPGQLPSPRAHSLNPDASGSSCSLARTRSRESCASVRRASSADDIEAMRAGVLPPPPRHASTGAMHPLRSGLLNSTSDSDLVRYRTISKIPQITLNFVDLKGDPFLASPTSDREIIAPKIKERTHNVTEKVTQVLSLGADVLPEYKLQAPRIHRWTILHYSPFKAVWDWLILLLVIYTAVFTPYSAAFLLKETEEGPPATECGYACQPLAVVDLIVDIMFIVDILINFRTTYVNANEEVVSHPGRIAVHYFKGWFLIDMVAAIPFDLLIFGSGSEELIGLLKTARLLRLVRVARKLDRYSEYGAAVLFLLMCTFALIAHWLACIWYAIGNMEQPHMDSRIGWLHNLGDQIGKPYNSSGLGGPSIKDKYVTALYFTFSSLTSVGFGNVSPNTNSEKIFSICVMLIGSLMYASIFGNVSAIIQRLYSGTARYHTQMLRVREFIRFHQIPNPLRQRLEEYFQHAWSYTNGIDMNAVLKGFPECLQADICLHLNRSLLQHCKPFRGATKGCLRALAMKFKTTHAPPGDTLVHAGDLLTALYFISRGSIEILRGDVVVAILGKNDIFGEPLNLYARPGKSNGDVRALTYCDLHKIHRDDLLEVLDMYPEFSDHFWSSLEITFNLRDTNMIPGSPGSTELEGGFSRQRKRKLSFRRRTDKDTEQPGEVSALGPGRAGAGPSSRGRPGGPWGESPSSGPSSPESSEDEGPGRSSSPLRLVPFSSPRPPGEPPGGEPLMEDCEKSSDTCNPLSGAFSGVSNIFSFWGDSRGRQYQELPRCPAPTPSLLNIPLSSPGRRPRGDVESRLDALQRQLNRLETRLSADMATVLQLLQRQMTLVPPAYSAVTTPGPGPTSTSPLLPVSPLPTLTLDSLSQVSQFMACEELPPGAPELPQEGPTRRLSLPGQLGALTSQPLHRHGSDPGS
# Description: Inhibition of human ERG expressed in HEK293 cells at 30 uM by patch clamp assay
# hERG (KCNH2) [3] = target: T1, hERG (KCNH2); experiment: in vitro; conditions: HEK293 cells expressing hERG; remark: listed apart in the source
# Description: Inhibition of human ERG expressed in HEK293 cells at 3 uM by patch clamp assay
# [4] = Protein binding in human plasma after 6 hrs by equilibrium dialysis method; assay type: ADME, cell-free; conditions: read-out: PPB (converted)
# HCT-116 [5] = experiment: Antitumor activity against human HCT116 cells xenografted in BALB/c mouse assessed as inhibition of tumor growth at 80 mg/kg, ip qd for 8 days measured on day 10 relative to control; assay type: functional; conditions: HCT-116, ip, route intraperitoneal
# [6] = Intrinsic clearance in mouse liver S9 fraction; assay type: ADME, subcellular; conditions: for CL: s9
# [7] = Drug level in human HCT116 cells xenografted nude BALB/c mouse tumor at 40 mg/kg, iv after 24 hrs; assay type: ADME, organism-based, Neoplasm, HCT-116; set-up: dose 40 mg/kg, route intravenous; conditions: read-out: Drug uptake
# HCT-116 [8] = experiment: Antitumor activity against human HCT116 cells xenografted in BALB/c mouse assessed as inhibition of tumor growth at 80 mg/kg, ip qd for 8 days measured on day 10; assay type: functional; conditions: HCT-116, ip, route intraperitoneal
# HCT-116 [9] = experiment: Cytotoxicity against human HCT116 cells at 10 uM by Alamar blue assay; assay type: functional
# [10] = Clearance in BALB/c mouse plasma at 10 mg/kg, iv; assay type: ADME, organism-based; set-up: dose 10 mg/kg, route intravenous
# HCT-116 [11] = experiment: Antitumor activity against human HCT116 cells xenografted in BALB/c mouse assessed as delay in tumor growth at 80 mg/kg, ip qd for 8 days; assay type: functional; conditions: route intraperitoneal
# Cytochrome P450 2C9 = Cytochrome P450 2C9 (Homo sapiens, UniProt P11712); experiment: Binding affinity to CYP2C9; assay type: ADME
# Cytochrome P450 2C9, sequence (P11712 whole entry): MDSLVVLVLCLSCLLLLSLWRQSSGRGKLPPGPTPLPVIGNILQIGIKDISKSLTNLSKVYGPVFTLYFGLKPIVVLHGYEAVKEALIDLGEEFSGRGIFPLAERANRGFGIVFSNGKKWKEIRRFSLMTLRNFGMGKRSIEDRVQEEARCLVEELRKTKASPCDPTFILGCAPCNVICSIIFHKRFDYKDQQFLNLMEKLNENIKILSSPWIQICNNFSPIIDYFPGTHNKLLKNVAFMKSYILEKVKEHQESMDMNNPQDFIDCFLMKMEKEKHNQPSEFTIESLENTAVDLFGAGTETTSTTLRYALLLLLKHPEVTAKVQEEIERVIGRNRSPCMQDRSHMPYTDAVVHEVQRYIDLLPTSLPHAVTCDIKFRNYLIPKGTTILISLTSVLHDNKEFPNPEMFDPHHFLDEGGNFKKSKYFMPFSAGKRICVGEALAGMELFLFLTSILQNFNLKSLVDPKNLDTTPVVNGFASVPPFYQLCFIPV
# Cytochrome P450 2C19 = Cytochrome P450 2C19 (Homo sapiens, UniProt P33261); experiment: Binding affinity to CYP2C19; assay type: ADME
# Cytochrome P450 2C19, sequence (P33261 whole entry): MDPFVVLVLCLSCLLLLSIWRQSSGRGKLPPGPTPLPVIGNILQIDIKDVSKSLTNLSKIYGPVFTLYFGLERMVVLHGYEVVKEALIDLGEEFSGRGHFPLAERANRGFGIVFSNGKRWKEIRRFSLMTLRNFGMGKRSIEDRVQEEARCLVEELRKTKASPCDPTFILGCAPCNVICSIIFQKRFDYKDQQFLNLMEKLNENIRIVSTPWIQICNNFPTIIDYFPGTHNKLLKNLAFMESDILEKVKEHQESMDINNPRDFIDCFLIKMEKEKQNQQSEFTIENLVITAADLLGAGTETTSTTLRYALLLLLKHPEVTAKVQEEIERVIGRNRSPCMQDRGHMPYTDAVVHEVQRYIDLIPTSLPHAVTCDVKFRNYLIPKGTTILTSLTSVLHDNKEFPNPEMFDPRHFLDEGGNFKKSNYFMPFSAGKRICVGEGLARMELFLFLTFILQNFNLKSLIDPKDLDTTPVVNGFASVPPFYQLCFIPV
# [12] = Drug level in human HCT116 cells xenografted nude BALB/c mouse tumor at 80 mg/kg, iv after 24 hrs; assay type: ADME, organism-based, Neoplasm, HCT-116; set-up: dose 80 mg/kg, route intravenous; conditions: read-out: Drug uptake
# HCT-116 [13] = experiment: Antitumor activity against human HCT116 cells xenografted in BALB/c mouse assessed as inhibition of tumor growth at 80 mg/kg, ip qd for 8 days measured on day 12 relative to control; assay type: functional; conditions: HCT-116, ip, route intraperitoneal
# CYP3A4 = CYP3A4 (Homo sapiens, UniProt P08684); experiment: Inhibition of CYP3A4 at 10 uM; assay type: ADME
# CYP3A4, sequence (P08684 whole entry): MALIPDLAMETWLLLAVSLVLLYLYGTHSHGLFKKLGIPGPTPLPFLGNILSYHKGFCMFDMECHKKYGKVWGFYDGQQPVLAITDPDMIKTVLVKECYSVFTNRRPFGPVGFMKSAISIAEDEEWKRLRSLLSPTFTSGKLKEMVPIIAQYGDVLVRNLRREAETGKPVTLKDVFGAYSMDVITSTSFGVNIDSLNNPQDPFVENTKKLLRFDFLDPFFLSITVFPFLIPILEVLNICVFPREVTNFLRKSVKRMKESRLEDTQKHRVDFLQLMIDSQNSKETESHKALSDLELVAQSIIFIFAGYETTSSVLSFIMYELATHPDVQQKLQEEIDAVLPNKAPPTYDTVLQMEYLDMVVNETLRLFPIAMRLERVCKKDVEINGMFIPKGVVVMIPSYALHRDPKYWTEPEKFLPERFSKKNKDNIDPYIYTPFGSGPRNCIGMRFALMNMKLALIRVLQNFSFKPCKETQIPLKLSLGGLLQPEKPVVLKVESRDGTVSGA
# HCT-116 [14] = experiment: Antitumor activity against human HCT116 cells xenografted in BALB/c mouse assessed as inhibition of tumor growth at 80 mg/kg, ip qd for 8 days measured on day 12; assay type: functional; conditions: HCT-116, ip, route intraperitoneal
# HCT-116 [15] = experiment: Cytotoxicity against human HCT116 cells at 100 uM by Alamar blue assay; assay type: functional
# HCT-116 [16] = experiment: Cytotoxicity against human HCT116 cells at 30 uM by Alamar blue assay; assay type: functional, cell-based
# CYP2C19 = CYP2C19 (Homo sapiens, UniProt P33261); experiment: Inhibition of CYP2C19 at 10 uM; assay type: ADME
# CYP2C19, sequence (P33261 whole entry): as the sequence (P33261 whole entry) above
# [17] = Protein binding in mouse plasma after 6 hrs by equilibrium dialysis method; assay type: ADME, cell-free; conditions: read-out: PPB (converted)
# [18] = Solubility of the compound in acetate buffer at 15 mg at pH 5.5; assay type: physicochemical
# [19] = Solubility of the compound in lactate buffer at 15 mg at pH 4.2; assay type: physicochemical
# HCT-116 [20] = experiment: Induction of apoptosis in human HCT116 cells assessed as reduction of CDK4 level at 30 nM after 18 hrs by immunoblotting; assay type: functional, cell-based
# [21] = Oral bioavailability in BALB/c mouse; assay type: ADME, organism-based; conditions: in vivo
# HCT-116 [22] = experiment: Induction of apoptosis in human HCT116 cells assessed as reduction of Raf-1 level at 30 nM after 18 hrs by immunoblotting; assay type: functional, cell-based
# [23] = Half life in BALB/c mouse plasma at 2 to 10 mg/kg, iv; assay type: ADME, organism-based; set-up: dose 2-10 mg/kg, route intravenous
# [24] = Volume of distribution at steady state in BALB/c mouse plasma at 2 to 10 mg/kg, iv; assay type: ADME, organism-based; set-up: dose 2-10 mg/kg, route intravenous; conditions: read-out: Vdss
# [25] = Solubility of the compound in phosphate buffer at 15 mg at pH 5.5; assay type: physicochemical
# [26] = Thermal stability of the compound at 80 degC after 24 hrs; assay type: physicochemical
# [27] = Chemical stability of the compound after 48 hrs; assay type: physicochemical
# [28] = Half life in BALB/c mouse muscle at 60 mg/kg, ip; assay type: ADME, organism-based, Muscle tissue; set-up: dose 60 mg/kg, route intraperitoneal
# [29] = Clearance in BALB/c mouse plasma at 2 to 10 mg/kg, iv; assay type: ADME, organism-based; set-up: dose 2-10 mg/kg, route intravenous
# [30] = Half life in BALB/c mouse blood at 60 mg/kg, ip; assay type: ADME, organism-based; set-up: dose 60 mg/kg, route intraperitoneal
# [31] = Chemical stability of the compound after 144 hrs; assay type: physicochemical
# CYP2C9 = CYP2C9 (Homo sapiens, UniProt P11712); experiment: Inhibition of CYP2C9 at 10 uM; assay type: ADME
# CYP2C9, sequence (P11712 whole entry): as the sequence (P11712 whole entry) above
# HCT-116 [32] = experiment: Antitumor activity against human HCT116 cells xenografted in BALB/c mouse assessed as inhibition of tumor growth at 60 mg/kg, ip qd for 3 days then no dose for 3 days for four dosing cycles measured on day 21 relative to control; assay type: functional; conditions: HCT-116, ip, route intraperitoneal
# [33] = Half life in human HCT116 cells xenografted BALB/c mouse tumor at 60 mg/kg, ip; assay type: ADME, organism-based, Neoplasm, HCT-116; set-up: dose 60 mg/kg, route intraperitoneal
# [34] = Chemical stability of the compound after 24 hrs; assay type: physicochemical
# HCT-116 [35] = experiment: Antitumor activity against human HCT116 cells xenografted in BALB/c mouse assessed as inhibition of tumor growth at 60 mg/kg, ip qd for 3 days then no dose for 3 days for four dosing cycles measured on day 21; assay type: functional; conditions: HCT-116, ip, route intraperitoneal
# [36] = Solubility of the compound in phosphate buffer at 15 mg at pH 6.5; assay type: physicochemical
# HCT-116 [37] = experiment: Induction of apoptosis in human HCT116 cells assessed as upregulation of Hsp70 level at 10 nM after 18 hrs by immunoblotting; assay type: functional, cell-based
compound,measurement,setting,value
CC(C)c1cc(C(=O)N2Cc3cccc(OCCCN4CCOCC4)c3C2)c(O)cc1O,pKa,[1],7
same,logD,physchem,3.55
same,inhibition at 30 µM,hERG (KCNH2) [2],83%
same,inhibition at 3 µM,hERG (KCNH2) [3],23%
CC(C)c1cc(C(=O)N2Cc3ccc(N4CCNCC4)cc3C2)c(O)cc1O,pKa,[1],8.4
same,logD,physchem,1.6
same,fraction unbound at 6 h,[4],0.36
same,inhibition at 30 µM,hERG (KCNH2) [2],70%
same,inhibition at 3 µM,hERG (KCNH2) [3],13%
CC(C)c1cc(C(=O)N2Cc3ccc(N4CCN(C)CC4)cc3C2)c(O)cc1O,pKa,[1],7.3
same,logD,physchem,2.98
same,inhibition in vivo at 80 mg/kg,HCT-116 [5],19%
same,microsomal CLint,[6]; liver S9 fraction,41 µL/min/mg
same,concentration at 24 h,[7],6.5 µM
same,inhibition in vivo at 80 mg/kg,HCT-116 [8],81%
same,Activity,HCT-116 [9],0%
same,clearance,[10],130 mL/min/kg
same,inhibition at 30 µM,hERG (KCNH2) [2],87%
same,inhibition at 3 µM,hERG (KCNH2) [3],41%
same,Activity,HCT-116 [11],10.5 days
CC(C)c1cc(C(=O)N2Cc3ccc(OCCN)cc3C2)c(O)cc1O,Activity,Cytochrome P450 2C9,Active
same,Activity,Cytochrome P450 2C19,Active
same,inhibition at 30 µM,hERG (KCNH2) [2],64%
same,inhibition at 3 µM,hERG (KCNH2) [3],11%
CC(C)c1cc(C(=O)N2Cc3ccc(OCCCN4CCOCC4)cc3C2)c(O)cc1O,pKa,[1],6.9
same,logD,physchem,3.3
same,inhibition at 30 µM,hERG (KCNH2) [2],95%
same,inhibition at 3 µM,hERG (KCNH2) [3],51%
CC(C)c1cc(C(=O)N2Cc3ccc(OCCCN)cc3C2)c(O)cc1O,pKa,[1],10.2
same,logD,physchem,0.96
same,Activity,Cytochrome P450 2C9,Active
same,Activity,Cytochrome P450 2C19,Active
same,inhibition at 30 µM,hERG (KCNH2) [2],42%
same,inhibition at 3 µM,hERG (KCNH2) [3],8%
CC(C)c1cc(C(=O)N2Cc3ccc(OCCN(C)C)cc3C2)c(O)cc1O,pKa,[1],7.85
same,logD,physchem,2.4
same,concentration at 24 h,[12],11 µM
same,CL,[6],0.034 mL/min/kg
same,inhibition in vivo at 80 mg/kg,HCT-116 [13],37%
same,inhibition at 10 µM,CYP3A4,34%
same,inhibition in vivo at 80 mg/kg,HCT-116 [14],63%
same,clearance,[10],170 mL/min/kg
same,inhibition at 30 µM,hERG (KCNH2) [2],87%
same,inhibition at 3 µM,hERG (KCNH2) [3],45%
same,Activity,HCT-116 [11],11.4 days
CC(C)c1cc(C(=O)N2Cc3ccccc3C2)c(O)c(F)c1O,Activity,HCT-116 [15],60%
same,CL,[6],0.004 mL/min/kg
same,Activity,HCT-116 [16],inactive
CC(C)c1cc(C(=O)N2Cc3ccc(CN4CCN(C)CC4)cc3C2)c(O)cc1O [ONALESPIB],pKa,[1],7.7
same,logD,physchem,2.7
same,inhibition at 10 µM,CYP2C19,< 50%
same,fraction unbound at 6 h,[17],0.09
same,fraction unbound at 6 h,[4],0.36
same,solubility,[18],> 30 mg/mL
same,solubility,[19],> 30 mg/mL
same,Activity,HCT-116 [20],Active
same,bioavailability,[21],31%
same,Activity,HCT-116 [22],Active
same,half-life,[23],0.9 h
same,Vd,[24],11 L/kg
same,CL,[6],0.046 mL/min/kg
same,solubility,[25],> 30 mg/mL
same,Stability,[26],Stable
same,Stability,[27],Stable
same,half-life,[28],3 h
same,clearance,[29],113 mL/min/kg
same,half-life,[30],4.7 h
same,Stability,[31],Stable
same,inhibition at 10 µM,CYP2C9,< 50%
same,inhibition in vivo at 60 mg/kg,HCT-116 [32],22%
same,half-life,[33],65 h
same,Stability,[34],Stable
same,inhibition in vivo at 60 mg/kg,HCT-116 [35],78%
same,inhibition at 30 µM,hERG (KCNH2) [2],42%
same,solubility,[36],15 mg/mL
same,inhibition at 3 µM,hERG (KCNH2) [3],7%
same,Activity,HCT-116 [37],Active
CC(C)c1cc(C(=O)N2Cc3ccc(OCCNC4CCCC4)cc3C2)c(O)cc1O,inhibition at 30 µM,hERG (KCNH2) [2],97%
same,inhibition at 3 µM,hERG (KCNH2) [3],60%
